Data: ChEMBL document CHEMBL5465560, “Selectivity Literature for EUbOPEN Chemogenomic Library” (2024)

Experiments:
[1] = target: Serine/threonine-protein kinase MARK2 (Homo sapiens) (UniProt Q7KZI7); test: Selectivity interaction (KinomeScan (DiscoverX)) EUB0000229b MARK2; settings: at 10 µM
[2] = target: Receptor-interacting serine/threonine-protein kinase 2 (Homo sapiens, UniProt O43353); test: Selectivity interaction (Competition-binding assay (DiscoverX)) EUB0000229b RIPK2
[3] = target: T1, Aurora kinase C (Homo sapiens) (UniProt Q9UQB9); test: Selectivity interaction (KinomeScan (DiscoverX)) EUB0000045b AURKC
T1 sequence (whole entry): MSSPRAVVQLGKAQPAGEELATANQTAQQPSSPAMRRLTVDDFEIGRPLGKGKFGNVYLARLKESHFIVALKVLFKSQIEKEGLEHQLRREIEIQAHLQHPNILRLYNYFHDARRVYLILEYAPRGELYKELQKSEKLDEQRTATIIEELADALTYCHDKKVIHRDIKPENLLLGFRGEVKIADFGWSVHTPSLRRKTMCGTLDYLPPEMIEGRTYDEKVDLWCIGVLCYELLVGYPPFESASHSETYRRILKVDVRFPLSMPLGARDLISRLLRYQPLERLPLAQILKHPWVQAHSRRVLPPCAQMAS

[4] = target: Tyrosine-protein kinase BTK (Homo sapiens, UniProt Q06187); settings: at 1 µM
[5] = target: T2, Ephrin type-A receptor 1 (Homo sapiens) (UniProt P21709); test: Selectivity interaction (KinomeScan (DiscoverX)) EUB0000666a EPHA1; settings: at 10 µM
T2 sequence (whole entry): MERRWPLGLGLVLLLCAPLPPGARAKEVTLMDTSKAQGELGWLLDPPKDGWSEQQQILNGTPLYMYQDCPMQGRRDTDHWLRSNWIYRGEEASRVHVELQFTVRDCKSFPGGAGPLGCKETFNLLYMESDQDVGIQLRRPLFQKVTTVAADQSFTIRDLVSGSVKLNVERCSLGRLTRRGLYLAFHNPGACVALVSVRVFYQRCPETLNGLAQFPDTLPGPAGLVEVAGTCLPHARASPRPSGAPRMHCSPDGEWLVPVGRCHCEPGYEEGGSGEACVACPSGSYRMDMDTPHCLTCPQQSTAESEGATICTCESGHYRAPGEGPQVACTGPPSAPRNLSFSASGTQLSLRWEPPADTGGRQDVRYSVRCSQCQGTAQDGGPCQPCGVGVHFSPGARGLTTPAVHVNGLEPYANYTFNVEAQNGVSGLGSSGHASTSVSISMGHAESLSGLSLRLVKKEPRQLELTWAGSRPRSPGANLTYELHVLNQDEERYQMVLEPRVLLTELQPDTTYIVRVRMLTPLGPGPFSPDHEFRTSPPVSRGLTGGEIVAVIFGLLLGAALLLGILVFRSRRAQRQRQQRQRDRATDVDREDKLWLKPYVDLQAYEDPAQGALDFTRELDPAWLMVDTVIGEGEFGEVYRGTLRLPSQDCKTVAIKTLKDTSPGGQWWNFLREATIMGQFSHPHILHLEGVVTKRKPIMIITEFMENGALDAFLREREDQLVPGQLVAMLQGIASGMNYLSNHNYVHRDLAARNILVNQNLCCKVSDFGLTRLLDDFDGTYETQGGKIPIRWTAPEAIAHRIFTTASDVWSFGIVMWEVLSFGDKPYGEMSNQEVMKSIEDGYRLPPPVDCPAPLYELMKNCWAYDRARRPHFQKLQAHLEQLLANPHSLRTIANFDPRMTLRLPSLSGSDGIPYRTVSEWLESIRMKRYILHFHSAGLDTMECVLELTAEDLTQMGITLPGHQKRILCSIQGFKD

[6] = target: Mitogen-activated protein kinase kinase kinase kinase 1 (Homo sapiens) (UniProt Q92918); settings: at 10 µM
[7] = target: Cyclin-dependent kinase-like 3 (Homo sapiens) (UniProt Q8IVW4); test: Selectivity interaction (KinomeScan (DiscoverX)) EUB0001049a CDKL3; settings: at 1 µM
[8] = target: Insulin-like growth factor 1 receptor (Homo sapiens, UniProt P08069); test: Selectivity interaction (ProQinase) EUB0000171b IGF1R
[9] = target: Serine/threonine-protein kinase 33 (Homo sapiens) (UniProt Q9BYT3); test: Selectivity interaction (KinomeScan (DiscoverX)) EUB0001619a STK33; settings: at 1 µM
[10] = target: Serine/threonine-protein kinase PAK 3 (Homo sapiens) (UniProt O75914); test: Selectivity interaction (SelectScreen profiling (Invitrogen)) EUB0000607a PAK3; settings: at 2 µM
[11] = target: T3, Dual specificity mitogen-activated protein kinase kinase 4 (Homo sapiens) (UniProt P45985); test: (§1) Selectivity interaction (ActivX KiNativ screen (kinase selectivity in THP-1 cell lysates)) EUB0000639a MAP2K4; assay type: subcellular; settings: lysate
T3 sequence (whole entry): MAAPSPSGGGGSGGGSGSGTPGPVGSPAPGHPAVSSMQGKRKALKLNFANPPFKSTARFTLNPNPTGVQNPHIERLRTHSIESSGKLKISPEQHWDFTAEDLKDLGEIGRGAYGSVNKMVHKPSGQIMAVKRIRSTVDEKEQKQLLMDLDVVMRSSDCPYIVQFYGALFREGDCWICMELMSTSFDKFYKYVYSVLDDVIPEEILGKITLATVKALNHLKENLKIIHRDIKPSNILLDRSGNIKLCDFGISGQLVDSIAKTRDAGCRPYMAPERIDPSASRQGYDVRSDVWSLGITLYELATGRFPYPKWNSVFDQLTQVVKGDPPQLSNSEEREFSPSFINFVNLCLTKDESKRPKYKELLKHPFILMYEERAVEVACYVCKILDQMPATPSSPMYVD

[12] = target: T3, Dual specificity mitogen-activated protein kinase kinase 4 (Homo sapiens); test: as §1; assay type: subcellular; settings: lysate, at 0.04 µM
[13] = target: 5'-AMP-activated protein kinase catalytic subunit alpha-2 (Homo sapiens) (UniProt P54646); test: Selectivity interaction (KinomeScan (DiscoverX)) EUB0000655a PRKAA2; settings: at 10 µM
[14] = tested on: Tyrosine-protein kinase ABL1 (Homo sapiens), P00519 [E255K]; settings: at 10 µM
[15] = target: Serine/threonine-protein kinase 24 (Homo sapiens) (UniProt Q9Y6E0); test: Selectivity interaction (Ambit KINOMEscan and KiNATiv profiling in Jurkat cells) EUB0000090b STK24; assay type: cell-based; settings: at 1 µM
Serine/threonine-protein kinase 24 (Homo sapiens), sequence (Q9Y6E0 whole entry, looked up): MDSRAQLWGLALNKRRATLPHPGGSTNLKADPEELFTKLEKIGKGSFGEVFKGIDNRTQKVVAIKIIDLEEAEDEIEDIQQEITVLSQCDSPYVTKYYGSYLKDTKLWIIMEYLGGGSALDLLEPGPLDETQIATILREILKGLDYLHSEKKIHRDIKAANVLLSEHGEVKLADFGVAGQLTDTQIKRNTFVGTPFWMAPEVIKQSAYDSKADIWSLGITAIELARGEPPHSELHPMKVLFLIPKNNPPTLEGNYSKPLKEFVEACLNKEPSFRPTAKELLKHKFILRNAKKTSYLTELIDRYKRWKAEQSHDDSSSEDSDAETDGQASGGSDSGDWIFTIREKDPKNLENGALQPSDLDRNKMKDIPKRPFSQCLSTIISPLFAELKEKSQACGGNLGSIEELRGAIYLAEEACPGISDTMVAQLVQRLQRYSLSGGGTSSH

Insulin-like growth factor 1 receptor, sequence (P08069 31-736 limits assumed): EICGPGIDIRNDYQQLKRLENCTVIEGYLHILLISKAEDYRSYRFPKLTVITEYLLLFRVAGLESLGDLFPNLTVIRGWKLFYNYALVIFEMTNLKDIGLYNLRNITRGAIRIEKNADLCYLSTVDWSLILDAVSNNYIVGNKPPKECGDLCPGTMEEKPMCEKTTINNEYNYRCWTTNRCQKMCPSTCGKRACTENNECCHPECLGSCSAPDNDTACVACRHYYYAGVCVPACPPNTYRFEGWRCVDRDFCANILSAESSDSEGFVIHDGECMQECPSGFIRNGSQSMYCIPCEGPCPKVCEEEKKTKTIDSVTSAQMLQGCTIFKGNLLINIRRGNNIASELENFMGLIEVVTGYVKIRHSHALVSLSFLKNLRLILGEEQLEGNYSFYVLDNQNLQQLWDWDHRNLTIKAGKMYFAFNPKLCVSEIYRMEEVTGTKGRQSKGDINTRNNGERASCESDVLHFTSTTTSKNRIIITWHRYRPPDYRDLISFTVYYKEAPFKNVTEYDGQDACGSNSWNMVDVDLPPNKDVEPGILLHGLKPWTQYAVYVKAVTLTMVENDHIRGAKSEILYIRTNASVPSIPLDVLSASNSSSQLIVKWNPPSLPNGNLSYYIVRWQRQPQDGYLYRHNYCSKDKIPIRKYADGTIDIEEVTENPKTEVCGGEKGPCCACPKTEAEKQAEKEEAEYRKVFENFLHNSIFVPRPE
Insulin-like growth factor 1 receptor, sequence (P08069 741-1367 limits assumed): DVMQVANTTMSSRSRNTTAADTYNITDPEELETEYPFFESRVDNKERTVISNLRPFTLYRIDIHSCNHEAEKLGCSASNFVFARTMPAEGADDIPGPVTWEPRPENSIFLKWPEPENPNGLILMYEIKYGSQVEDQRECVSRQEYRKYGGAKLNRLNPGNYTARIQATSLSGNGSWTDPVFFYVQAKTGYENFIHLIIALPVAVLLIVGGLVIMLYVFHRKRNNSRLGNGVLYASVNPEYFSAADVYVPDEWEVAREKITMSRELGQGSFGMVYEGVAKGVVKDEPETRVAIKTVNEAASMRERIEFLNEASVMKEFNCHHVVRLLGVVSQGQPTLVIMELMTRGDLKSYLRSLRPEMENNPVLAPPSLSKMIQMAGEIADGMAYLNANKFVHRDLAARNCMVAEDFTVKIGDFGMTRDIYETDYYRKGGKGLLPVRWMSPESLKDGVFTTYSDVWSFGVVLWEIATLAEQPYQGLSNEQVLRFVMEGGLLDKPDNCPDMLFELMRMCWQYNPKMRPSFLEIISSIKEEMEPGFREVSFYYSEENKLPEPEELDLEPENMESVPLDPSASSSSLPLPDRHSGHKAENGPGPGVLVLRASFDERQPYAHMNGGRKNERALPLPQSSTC
Tyrosine-protein kinase ABL1 (Homo sapiens), P00519 [E255K], sequence (P00519 whole entry E255K): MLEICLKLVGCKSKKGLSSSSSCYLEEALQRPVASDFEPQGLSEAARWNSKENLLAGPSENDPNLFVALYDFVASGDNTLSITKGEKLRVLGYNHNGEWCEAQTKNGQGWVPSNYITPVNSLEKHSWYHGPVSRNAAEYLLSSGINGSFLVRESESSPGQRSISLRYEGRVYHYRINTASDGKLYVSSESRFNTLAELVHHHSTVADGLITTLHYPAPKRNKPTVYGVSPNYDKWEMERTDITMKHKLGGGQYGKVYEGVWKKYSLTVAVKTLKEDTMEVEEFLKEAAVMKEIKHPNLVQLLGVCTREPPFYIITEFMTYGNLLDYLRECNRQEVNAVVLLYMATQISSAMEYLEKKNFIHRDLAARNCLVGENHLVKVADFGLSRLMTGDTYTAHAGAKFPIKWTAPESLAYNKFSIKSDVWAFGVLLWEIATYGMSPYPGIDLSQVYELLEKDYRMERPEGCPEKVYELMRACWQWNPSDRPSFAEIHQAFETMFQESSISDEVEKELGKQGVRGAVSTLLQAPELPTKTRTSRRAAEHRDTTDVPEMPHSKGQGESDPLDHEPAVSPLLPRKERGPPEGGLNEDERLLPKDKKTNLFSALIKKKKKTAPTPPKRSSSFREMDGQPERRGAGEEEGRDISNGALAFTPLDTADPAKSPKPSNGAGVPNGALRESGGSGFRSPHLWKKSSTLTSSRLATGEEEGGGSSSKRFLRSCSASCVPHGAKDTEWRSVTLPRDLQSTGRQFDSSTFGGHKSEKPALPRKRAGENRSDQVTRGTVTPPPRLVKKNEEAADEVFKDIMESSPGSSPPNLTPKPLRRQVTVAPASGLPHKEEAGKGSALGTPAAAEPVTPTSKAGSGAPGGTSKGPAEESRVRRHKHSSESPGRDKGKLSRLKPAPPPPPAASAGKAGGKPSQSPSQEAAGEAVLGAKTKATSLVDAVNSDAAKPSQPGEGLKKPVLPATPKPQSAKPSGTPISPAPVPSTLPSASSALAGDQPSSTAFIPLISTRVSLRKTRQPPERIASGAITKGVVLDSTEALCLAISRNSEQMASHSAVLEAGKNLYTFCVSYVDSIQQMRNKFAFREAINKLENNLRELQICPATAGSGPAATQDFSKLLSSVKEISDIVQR
Mitogen-activated protein kinase kinase kinase kinase 1 (Homo sapiens), sequence (Q92918 whole entry, looked up): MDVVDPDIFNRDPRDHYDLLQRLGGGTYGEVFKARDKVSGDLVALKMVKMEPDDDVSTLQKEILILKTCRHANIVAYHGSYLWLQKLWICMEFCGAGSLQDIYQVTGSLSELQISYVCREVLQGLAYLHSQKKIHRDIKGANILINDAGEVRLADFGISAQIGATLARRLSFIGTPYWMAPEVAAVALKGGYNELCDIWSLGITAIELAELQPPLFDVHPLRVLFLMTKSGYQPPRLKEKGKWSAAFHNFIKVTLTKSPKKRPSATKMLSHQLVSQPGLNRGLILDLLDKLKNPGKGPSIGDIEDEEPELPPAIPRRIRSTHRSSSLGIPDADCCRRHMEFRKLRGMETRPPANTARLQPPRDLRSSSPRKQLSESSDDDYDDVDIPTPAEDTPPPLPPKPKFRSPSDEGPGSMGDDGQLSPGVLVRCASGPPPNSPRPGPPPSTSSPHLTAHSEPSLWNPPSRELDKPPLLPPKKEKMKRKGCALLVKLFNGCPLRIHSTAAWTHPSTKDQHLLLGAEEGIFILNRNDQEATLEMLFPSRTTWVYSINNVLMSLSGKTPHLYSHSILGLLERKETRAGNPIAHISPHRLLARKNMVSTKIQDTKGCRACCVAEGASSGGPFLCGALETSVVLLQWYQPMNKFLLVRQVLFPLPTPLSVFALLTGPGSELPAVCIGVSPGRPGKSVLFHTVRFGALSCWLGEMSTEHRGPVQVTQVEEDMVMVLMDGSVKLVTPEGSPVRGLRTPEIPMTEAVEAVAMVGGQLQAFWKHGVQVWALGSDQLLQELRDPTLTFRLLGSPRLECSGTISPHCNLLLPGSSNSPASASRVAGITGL
Serine/threonine-protein kinase PAK 3 (Homo sapiens), sequence (O75914 whole entry, looked up): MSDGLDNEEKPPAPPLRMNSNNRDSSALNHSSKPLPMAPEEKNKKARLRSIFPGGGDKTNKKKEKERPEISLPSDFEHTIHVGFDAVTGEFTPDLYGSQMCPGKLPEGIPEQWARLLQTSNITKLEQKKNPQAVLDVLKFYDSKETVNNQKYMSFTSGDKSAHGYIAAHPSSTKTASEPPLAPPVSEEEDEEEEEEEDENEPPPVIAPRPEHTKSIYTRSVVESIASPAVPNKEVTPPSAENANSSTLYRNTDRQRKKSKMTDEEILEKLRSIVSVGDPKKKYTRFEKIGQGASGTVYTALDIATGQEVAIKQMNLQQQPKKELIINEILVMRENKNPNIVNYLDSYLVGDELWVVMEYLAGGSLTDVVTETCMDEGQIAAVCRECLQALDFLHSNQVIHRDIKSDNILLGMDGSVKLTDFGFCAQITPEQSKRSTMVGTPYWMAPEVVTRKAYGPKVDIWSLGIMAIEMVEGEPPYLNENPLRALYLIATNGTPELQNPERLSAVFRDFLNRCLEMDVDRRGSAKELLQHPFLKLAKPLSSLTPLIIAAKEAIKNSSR
5'-AMP-activated protein kinase catalytic subunit alpha-2 (Homo sapiens), sequence (P54646 whole entry, looked up): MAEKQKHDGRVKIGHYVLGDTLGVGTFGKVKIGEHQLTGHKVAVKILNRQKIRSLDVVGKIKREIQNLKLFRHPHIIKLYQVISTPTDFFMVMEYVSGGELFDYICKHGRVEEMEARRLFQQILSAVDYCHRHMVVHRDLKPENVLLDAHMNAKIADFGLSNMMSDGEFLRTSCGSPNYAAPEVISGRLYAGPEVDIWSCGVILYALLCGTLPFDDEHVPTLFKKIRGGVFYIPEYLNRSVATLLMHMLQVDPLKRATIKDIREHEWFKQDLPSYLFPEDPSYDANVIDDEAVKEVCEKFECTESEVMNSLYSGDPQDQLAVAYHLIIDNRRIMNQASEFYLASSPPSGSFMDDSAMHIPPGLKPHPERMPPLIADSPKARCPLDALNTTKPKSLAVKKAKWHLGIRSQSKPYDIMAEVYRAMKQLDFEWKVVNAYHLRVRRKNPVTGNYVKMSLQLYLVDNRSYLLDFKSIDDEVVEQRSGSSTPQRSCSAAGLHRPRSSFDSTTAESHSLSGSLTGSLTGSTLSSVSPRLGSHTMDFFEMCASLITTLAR

For `COc1cc(N(C)c2ccnc3ccc(C(F)(F)F)cc23)cc(OC)c1OC`, the % binding [1] was 85% and the Kd [2] was 4.9 µM.
With `C=CC(=O)Nc1cc(-n2c(=O)ccc3cnc4ccc(-c5ccc(NS(C)(=O)=O)cc5)cc4c32)ccc1C` the % of control ([3]; at 1 µM) was 90%, the % of control ([3]; at 10 µM) was 63% and the % of control [4] was 1%.
Compound `O=C(NOC[C@H](O)CO)c1ccc(F)c(F)c1Nc1ccc(I)cc1F` has a % of control [5] of 91%.
In the case of `Cc1cc([C@@H](C)Nc2ccccc2C(=O)O)c2nc(N3CCOCC3)cc(=O)n2c1` [AZD-6482], the % of control [6] is reported as 100%.
`COc1cc(Nc2nc(C)cc(-c3cnn4nc(OC)ccc34)n2)cc(C(F)(F)F)c1` was tested, and the % of control [7] was 94%.
`C=CC(=O)Nc1cccc(C(=O)Nc2ccc(Nc3cc(-c4[nH]c(SC)nc4C)ccn3)cc2)c1` gave a % of control ([8]; at 1 µM) of 92% and a % of control ([8]; at 5 µM) of 86%.
In the case of `N#Cc1cccc(-c2c[nH]c3ncnc(N4CCOCC4)c23)c1`, the % of control [9] is reported as 60%.
Compound `CNC(=O)Nc1ccc(-c2nc(N3CC4CCC(C3)O4)c3cnn(C4CCC5(CC4)OCCO5)c3n2)cc1` has a % of inhibition [10] of 1%.
Compound `CC[C@@H]1[C@H](F)C(=O)N[C@@H]1COc1nccc2cc(C(N)=O)c(OC)cc12` [ZIMLOVISERTIB] has a % of inhibition ([11]; at 0.01 µM) of -9.4%, a % of inhibition ([11]; at 0.04 µM) of -17.8% and a % of inhibition ([11]; at 0.2 µM) of 0.7%. It also gave a % of inhibition ([11]; at 1 µM) of 17.6%, a % of inhibition ([11]; at 5 µM) of 56.2% and a % of inhibition [12] of 8%.
`CN(C)CCOc1ccc(-c2nc(-c3ccncc3)c(-c3ccc4c(c3)CC/C4=N\O)[nH]2)cc1` gave a % of control [13] of 94%.
Work on `CCN(CC)CCCCNc1ncc2cc(-c3cc(OC)cc(OC)c3)c(NC(=O)NC(C)(C)C)nc2n1` yielded a % of control [14] of 100%.
Work on `CN(C)C/C=C/C(=O)Nc1ccc(C(=O)N2CCCC(Nc3ncc(Cl)c(-c4c[nH]c5ccccc45)n3)C2)cc1` (stereo unspecified) yielded a % of control [15] of 94%.
